Measurements reported in paper PMC6825211 (Nature Communications, 2019).
Where “and” joins values, the source holds several entries; their conditions need not be identical. Equal values may be shown once.

Legend:
MST1 = biological target: T1, MST1 (Homo sapiens, UniProt Q13043); test: biochemical
T1 sequence (Q13043 1-487): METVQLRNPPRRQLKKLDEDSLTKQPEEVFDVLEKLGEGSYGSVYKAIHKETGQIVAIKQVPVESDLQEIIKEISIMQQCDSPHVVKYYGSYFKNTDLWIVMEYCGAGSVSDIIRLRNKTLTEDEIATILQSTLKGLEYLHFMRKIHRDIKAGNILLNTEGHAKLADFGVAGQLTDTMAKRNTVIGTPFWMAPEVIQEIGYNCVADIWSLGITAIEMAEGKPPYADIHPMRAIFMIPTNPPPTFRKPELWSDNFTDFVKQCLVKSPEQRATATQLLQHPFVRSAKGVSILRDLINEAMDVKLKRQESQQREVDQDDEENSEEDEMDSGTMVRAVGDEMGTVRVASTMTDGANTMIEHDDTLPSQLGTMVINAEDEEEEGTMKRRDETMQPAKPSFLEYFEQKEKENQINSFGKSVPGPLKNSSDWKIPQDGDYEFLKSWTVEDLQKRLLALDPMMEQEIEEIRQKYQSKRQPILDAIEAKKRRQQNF

MST family members = test system: MST family members; design: method as in PMID 22037378; conditions: cited from earlier work
DAPK1 = DAPK1 (Homo sapiens, UniProt P53355); test: Nanosyn kinase profiling, mobility shift assay; conditions: read-out: % inhibition by neratinib
Sequence of DAPK1 (P53355 whole entry): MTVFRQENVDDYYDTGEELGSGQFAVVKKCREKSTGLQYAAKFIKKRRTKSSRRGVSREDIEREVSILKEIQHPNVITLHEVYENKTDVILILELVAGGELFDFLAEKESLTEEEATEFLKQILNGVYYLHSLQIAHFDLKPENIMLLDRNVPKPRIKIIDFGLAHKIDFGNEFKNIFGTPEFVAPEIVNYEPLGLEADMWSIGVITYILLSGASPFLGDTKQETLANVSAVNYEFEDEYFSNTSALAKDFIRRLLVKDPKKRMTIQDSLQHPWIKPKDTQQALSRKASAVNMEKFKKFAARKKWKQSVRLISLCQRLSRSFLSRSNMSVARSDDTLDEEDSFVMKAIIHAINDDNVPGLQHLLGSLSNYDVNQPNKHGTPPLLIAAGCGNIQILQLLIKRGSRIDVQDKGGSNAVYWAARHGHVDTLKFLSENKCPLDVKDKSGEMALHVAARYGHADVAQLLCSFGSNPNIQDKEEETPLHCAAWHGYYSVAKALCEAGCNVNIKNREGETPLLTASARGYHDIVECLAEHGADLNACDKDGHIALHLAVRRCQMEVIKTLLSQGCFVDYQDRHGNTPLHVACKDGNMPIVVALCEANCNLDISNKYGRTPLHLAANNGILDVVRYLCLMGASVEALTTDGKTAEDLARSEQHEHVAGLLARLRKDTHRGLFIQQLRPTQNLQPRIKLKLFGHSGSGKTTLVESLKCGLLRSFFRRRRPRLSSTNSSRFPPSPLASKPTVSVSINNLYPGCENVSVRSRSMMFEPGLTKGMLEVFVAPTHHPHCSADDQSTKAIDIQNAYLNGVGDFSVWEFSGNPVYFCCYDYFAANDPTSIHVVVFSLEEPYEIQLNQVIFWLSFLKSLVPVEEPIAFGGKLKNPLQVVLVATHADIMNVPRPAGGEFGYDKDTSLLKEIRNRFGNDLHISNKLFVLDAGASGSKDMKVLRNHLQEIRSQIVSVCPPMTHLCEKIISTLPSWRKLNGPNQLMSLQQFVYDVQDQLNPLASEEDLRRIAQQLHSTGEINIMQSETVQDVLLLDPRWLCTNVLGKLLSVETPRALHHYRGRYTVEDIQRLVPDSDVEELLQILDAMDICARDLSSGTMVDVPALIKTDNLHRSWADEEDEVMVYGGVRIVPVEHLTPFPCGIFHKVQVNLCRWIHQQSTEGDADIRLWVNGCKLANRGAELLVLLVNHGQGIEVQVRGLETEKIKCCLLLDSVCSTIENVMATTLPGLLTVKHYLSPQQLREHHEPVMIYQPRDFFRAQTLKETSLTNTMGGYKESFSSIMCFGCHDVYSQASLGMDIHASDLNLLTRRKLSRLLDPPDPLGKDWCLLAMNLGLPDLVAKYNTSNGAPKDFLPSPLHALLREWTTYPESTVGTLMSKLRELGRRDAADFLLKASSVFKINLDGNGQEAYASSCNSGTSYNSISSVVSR

IKK-BETA = IKK-BETA (Homo sapiens, UniProt O14920); test: Nanosyn kinase profiling, mobility shift assay; conditions: read-out: % inhibition by neratinib
Sequence of IKK-BETA (O14920 whole entry): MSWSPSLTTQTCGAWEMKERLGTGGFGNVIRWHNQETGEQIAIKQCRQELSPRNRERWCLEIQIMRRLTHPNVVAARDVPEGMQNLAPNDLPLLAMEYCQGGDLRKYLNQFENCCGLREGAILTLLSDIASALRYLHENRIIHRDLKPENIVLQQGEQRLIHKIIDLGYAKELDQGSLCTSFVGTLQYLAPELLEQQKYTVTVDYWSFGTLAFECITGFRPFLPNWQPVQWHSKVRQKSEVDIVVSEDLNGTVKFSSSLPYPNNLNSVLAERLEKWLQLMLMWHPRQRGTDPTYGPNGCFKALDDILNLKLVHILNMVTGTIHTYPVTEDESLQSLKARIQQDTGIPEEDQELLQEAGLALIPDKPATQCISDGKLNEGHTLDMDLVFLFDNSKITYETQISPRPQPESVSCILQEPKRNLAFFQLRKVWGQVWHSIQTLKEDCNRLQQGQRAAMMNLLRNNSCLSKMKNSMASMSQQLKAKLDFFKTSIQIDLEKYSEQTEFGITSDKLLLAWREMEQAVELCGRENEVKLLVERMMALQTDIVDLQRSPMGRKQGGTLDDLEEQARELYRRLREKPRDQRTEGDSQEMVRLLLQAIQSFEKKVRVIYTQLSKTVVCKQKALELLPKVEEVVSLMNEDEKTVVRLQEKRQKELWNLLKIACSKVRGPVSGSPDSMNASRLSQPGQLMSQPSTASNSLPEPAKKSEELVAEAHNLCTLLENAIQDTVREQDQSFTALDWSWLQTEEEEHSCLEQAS

MLD–STZ C57BL/6J mice = test: MLD–STZ model: PDX1, NKX6.1, Glut2 immunostaining; type: in vivo, mouse
Method: Representative triple stainings for PDX1 (red, a), Glut2 (red, b), or NKX6.1 (red, c), insulin (green), and DAPI (blue) are shown from vehicle-, STZ-, and STZ/Nera-treated mice (n = 8, 4, 9 & 9 mice/group). Scale bar, 100 μm
Mouse pancreases were dissected and fixed in 4% formaldehyde at 4 °C for 12 h before embedding in paraffin[62]. […] Slides were mounted with Vectashield with 4′6-diamidino-2-phenylindole (DAPI) (Vector Labs). β-cell apoptosis was analyzed by the terminal deoxynucleotidyl transferase-mediated dUTP nick-end labeling (TUNEL) technique according to the manufacturer’s instructions (In Situ Cell Death Detection Kit, TMR red; Roche) and double stained for insulin. Fluorescence was analyzed by using a Nikon MEA53200 (Nikon GmbH, Dusseldorf, Germany) microscope, and images were acquired by using NIS-Elements software (Nikon).

IRAK4 = IRAK4 (Homo sapiens, UniProt Q9NWZ3); test: Nanosyn kinase profiling, mobility shift assay; conditions: read-out: % inhibition by neratinib
Sequence of IRAK4 (Q9NWZ3 whole entry): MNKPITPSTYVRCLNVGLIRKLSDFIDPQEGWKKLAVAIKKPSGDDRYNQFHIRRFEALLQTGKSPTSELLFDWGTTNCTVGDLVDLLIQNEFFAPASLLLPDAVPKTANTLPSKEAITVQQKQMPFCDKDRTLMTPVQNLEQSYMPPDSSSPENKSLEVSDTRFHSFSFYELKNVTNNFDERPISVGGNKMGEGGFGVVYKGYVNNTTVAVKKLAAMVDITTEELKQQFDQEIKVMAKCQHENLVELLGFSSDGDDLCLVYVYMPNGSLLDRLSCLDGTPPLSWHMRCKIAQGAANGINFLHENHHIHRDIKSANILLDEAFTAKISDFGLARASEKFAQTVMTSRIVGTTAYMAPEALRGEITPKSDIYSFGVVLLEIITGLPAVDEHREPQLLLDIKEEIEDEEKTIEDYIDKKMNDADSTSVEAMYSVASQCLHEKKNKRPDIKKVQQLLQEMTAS

[1] = test system: obese diabetic Lepr db/db mice; test: db/db model: ipITT; type: in vivo, mouse; design: ipITT: unit not given here; conditions: for ipITT normalized to 100: MEAN
Text: (§1) Data are representative of six mice per group (n = 6 for (a–f)). g–j Mice were killed at day 31. g β-cell mass (given as percentage of the whole pancreatic section from ten sections spanning the width of the pancreas; n = 5 mice/group) and quantitative analyses from triple stainings for (h) TUNEL, (i) Ki67, (j) pHH3, and (k) nuclear PDX1 expression, insulin, and DAPI expressed as percentage of TUNEL-, Ki67-, pHH3-, or nuclear PDX1-positive β-cells ± SEM. An average number of 13667 (h), 5937 (i), 7108 (j), or 4330 (k) β-cells were counted from n = 3–5 (h, i, k) or n = 5–6 (j) mice/group.
For intraperitoneal glucose tolerance tests, mice were fasted 12 h overnight and injected i.p. with glucose (40%; B.Braun, Melsungen, Germany) at a dose of 1 g/kg body weight. Blood samples were obtained at time points 0, 15, 30, 60, 90, and 120 min for glucose measurements by using a Glucometer. For i.p. insulin tolerance tests, mice were injected with 0.75 U/kg body weight recombinant human insulin (Novolin, Novo Nordisk) after 4–5-h fasting, and glucose concentration was determined with the Glucometer. Insulin secretion was measured before (0 min) and after (15 and 30 min) i.p. injection of glucose (2 g/kg) and measured by using ultrasensitive mouse Elisa kit (ALPCO Diagnostics, Salem, NH).

FLT-3 = FLT-3 (Homo sapiens, UniProt P36888); test: Nanosyn kinase profiling, mobility shift assay; conditions: read-out: % inhibition by neratinib
Sequence of FLT-3 (P36888 27-993): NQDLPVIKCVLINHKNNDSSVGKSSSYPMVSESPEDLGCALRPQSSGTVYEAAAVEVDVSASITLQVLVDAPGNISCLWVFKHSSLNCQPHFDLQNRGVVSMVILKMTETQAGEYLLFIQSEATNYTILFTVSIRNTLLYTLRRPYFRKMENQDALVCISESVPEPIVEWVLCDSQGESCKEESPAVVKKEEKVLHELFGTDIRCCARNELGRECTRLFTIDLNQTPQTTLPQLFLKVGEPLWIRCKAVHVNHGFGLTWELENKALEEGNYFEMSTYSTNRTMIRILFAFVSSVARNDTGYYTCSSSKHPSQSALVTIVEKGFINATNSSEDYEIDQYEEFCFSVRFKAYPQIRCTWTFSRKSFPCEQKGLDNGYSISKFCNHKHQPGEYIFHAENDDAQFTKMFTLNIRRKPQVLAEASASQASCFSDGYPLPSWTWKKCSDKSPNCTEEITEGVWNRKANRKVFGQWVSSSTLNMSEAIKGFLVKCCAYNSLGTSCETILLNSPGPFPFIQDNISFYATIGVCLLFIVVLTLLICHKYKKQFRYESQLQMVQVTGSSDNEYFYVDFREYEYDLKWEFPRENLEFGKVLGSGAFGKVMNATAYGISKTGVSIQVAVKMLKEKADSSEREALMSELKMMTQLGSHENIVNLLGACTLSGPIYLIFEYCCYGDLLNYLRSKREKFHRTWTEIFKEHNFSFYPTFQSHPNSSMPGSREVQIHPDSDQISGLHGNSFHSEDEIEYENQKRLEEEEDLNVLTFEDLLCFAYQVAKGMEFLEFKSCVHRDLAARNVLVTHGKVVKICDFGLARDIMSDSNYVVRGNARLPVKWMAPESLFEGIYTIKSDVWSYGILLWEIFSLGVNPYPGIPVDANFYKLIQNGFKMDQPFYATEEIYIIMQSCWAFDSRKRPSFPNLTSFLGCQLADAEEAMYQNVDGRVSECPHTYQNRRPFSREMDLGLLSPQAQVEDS

[2] = test system: obese diabetic Lepr db/db mice; test: db/db model: random fed blood glucose; type: in vivo, mouse; conditions: for glycemia: dbdb mice
Text: as §1

INS-1E cells = test: Caspase-3 activation Nucview assay, TNFα/IFNγ with 33 mM glucose; type: cell-based, rat; conditions: up to 6.7 µM neratinib
ABL1 = ABL1 (Homo sapiens, UniProt P00519); test: Nanosyn kinase profiling, mobility shift assay; conditions: read-out: % inhibition by neratinib
Sequence of ABL1 (P00519 whole entry): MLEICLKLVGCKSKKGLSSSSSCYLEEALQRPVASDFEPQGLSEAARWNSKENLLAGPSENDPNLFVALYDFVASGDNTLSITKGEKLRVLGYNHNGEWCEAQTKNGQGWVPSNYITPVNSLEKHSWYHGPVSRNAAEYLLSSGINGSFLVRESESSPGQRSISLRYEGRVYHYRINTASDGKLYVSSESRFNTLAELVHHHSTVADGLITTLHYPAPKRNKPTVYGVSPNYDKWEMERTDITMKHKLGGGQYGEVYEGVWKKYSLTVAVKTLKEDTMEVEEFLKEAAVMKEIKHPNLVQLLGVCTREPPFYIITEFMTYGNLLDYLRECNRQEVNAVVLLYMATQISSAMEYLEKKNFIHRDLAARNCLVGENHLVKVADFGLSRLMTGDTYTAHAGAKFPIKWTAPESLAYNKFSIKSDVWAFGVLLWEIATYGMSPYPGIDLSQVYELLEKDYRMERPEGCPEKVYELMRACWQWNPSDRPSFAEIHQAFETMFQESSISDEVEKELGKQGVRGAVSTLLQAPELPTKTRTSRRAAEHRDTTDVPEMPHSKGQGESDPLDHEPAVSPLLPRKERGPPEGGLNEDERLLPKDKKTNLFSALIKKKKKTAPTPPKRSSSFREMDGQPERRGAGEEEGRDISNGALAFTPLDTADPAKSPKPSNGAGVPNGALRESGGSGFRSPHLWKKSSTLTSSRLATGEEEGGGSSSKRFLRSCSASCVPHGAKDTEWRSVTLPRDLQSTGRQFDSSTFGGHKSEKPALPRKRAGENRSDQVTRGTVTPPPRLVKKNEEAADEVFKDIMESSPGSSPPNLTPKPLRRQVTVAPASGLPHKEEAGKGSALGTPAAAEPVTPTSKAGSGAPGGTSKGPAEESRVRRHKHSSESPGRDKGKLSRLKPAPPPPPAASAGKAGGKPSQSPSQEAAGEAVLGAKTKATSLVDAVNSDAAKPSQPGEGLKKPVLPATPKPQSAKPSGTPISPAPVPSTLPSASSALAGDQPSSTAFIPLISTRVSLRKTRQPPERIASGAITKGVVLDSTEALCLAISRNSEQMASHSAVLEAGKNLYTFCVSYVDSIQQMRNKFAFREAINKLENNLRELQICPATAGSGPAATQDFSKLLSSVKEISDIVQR

For `CCOc1cc2ncc(C#N)c(Nc3ccc(OCc4ccccn4)c(Cl)c3)c2cc1NC(=O)/C=C/CN(C)C` [neratinib], the inhibition at 10 µM (MST1; read-out: % inhibition by neratinib) is listed as 98%, the inhibition at 3 µM (MST1; read-out: MST1 inhibition) is listed as 97% and the “activity on MST family members” value (MST family members) is listed as “potent activity”. The inhibition at 10 µM (DAPK1) was 4%, the inhibition at 10 µM (IKK-BETA) was -7% and the “β-cell Glut2 expression” value (MLD–STZ C57BL/6J mice; MLD–STZ mice) was “restored β-cell Glut2 expression”. The “loss of nuclear PDX1- and NKX6.1-positive cells and islet architecture in MLD–STZ mice” value (MLD–STZ C57BL/6J mice; mouse, in vivo) was “markedly attenuated”, the inhibition at 10 µM (IRAK4) was 17% and the “ipITT normalized to 100” value ([1]; 0 min after ins) was 100. For the same molecule, the “ipITT normalized to 100” value ([1]; 15 min after ins) was 132.381, the “ipITT normalized to 100” value ([1]; 30 min after ins) was 111.751 and the “ipITT normalized to 100” value ([1]; 60 min after ins) was 88.1279. For the same molecule, the “ipITT normalized to 100” value ([1]; 90 min after ins) was 87.8414, the “basal glucose lower in neratinib-treated mice after a short fast of 4 h” value ([1]; db/db) was 20% and the “response to insulin challenge (ipITT)” value ([1]; db/db) was “modestly reduced ability to lower their glucose levels”. For the same molecule, the “AUC ipITT” value ([1]; insert 8d, normalized to 100, individual mice) was 11197.2 and 9260.59 and 10559.8 and 6670.17 and 8196.06 and 9385.6, the “MEAN AUC ipITT” value ([1]; insert 8d, normalized to 100, mean) was 9211.58 and the ipITT ([1]; time 0, MEAN) was 336.667. For the same molecule, the ipITT ([1]; time 0, individual mice) was 327 and 354 and 301 and 357 and 292 and 389, the ipITT ([1]; time 15, MEAN) was 444.667 and the ipITT ([1]; time 15, individual mice) was 477 and 480 and 417 and 432 and 371 and 491. For the same molecule, the ipITT ([1]; time 30, MEAN) was 371.5, the ipITT ([1]; time 30, individual mice) was 455 and 383 and 437 and 224 and 323 and 407 and the ipITT ([1]; time 60, MEAN) was 297.167. For the same molecule, the ipITT ([1]; time 60, individual mice) was 397 and 342 and 303 and 176 and 182 and 383, the ipITT ([1]; time 90, MEAN) was 295.833 and the ipITT ([1]; time 90, individual mice) was 324 and 270 and 290 and 289 and 230 and 372. For the same molecule, the inhibition at 10 µM (FLT-3) was 47%, the “blood glucose, start to after 30 days of therapy” value ([2]; db/db neratinib group, no significant increase) was 312 to 384 mg/dL and the “blood glucose levels after 4 weeks” value ([2]; db/db, 5 mg/kg i.p. daily) was “did not significantly increase”. For the same molecule, the glycemia ([2]; 0 days after NERA injection, MEAN) was 311.667 mg/dL, the glycemia ([2]; 0 days after NERA injection, individual mice) was 219 mg/dL and 243 mg/dL and 260 mg/dL and 443 mg/dL and 266 mg/dL and 439 mg/dL and the glycemia ([2]; 31 days after NERA injection, individual mice) was 405 mg/dL and 313 mg/dL and 425 mg/dL and 317 mg/dL and 380 mg/dL and 462 mg/dL. The “caspase-3 activation induced by TNFα/IFNγ and high glucose” value (INS-1E cells) was “largely inhibited” and the inhibition at 10 µM (ABL1) was 36%.
